What all share (experiment): Competitive cysteine profiling of cell lysate with desthiobiotin iodoacetamide probe (96-well sample prep)
What all share (assay type): binding

Test [1] concerns the target T1, cysteine residue illustrated in Table 1A or Table 2A (Homo sapiens, UniProt O95628).
T1 construct: endogenous in cells
T1 sequence (O95628 1-575): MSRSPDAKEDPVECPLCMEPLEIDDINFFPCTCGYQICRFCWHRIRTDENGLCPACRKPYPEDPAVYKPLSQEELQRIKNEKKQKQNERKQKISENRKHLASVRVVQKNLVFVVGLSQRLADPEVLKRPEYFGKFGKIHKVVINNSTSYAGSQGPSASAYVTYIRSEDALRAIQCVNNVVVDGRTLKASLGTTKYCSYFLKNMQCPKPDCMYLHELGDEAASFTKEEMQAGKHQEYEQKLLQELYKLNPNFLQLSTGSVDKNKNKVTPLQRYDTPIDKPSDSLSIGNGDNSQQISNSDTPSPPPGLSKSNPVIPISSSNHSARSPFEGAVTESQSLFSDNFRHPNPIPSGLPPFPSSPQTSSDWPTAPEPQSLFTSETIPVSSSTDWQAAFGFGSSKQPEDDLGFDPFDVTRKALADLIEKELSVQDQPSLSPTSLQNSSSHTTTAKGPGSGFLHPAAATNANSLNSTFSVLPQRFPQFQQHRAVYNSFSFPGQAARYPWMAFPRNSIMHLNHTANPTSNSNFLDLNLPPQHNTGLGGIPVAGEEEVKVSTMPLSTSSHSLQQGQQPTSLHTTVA
The settings on record: UniProt O95628; 100 uM. Here is the method:
(§1) In some embodiments, the solution sample (e.g., cell sample, cell lysate sample, or comprising isolated proteins) is incubated with a compound of Formula (I) for analysis of protein-probe interactions. In some instances, the solution sample (e.g., cell sample, cell lysate sample, or comprising isolated proteins) is further incubated in the presence of an additional compound probe prior to addition of the compound of Formula (I). […] In such instances, the solution sample is incubated with a probe and a ligand for competitive protein profiling analysis.
(§2) The following 96-well sample prep protocol was used for sample preparation.
(§3) Cells were resuspended in cold PBS on ice and sonicated with a probe sonicator to achieve lysis. 200 μL of lysate containing 5 mg/ml proteome was treated with 2 μL of 100× compound stock in a 2-mL deep-well plate. The treated lysate was subsequently incubate at 25° C. for 1 hr with shaking at 600 rpm. The treated lysate was further incubated with 2 μL of 10 mM desthiobiotin iodoacetamide probe at 25° C. for 1 hr with shaking at 600 rpm. Next, the lysate was further treat with 20 μL of solution of PBS containing 11 mM MgSO4 and 2.5% Turbonuclease stock and incubated at 25° C. for 20 minutes with shaking at 600 rpm. 1.7 mL ice-cold acetone was added to each well and incubated at −20° C. for 2 hr, followed by max speed (4200 rpm) spin for 45 min. Acetone was then decanted and the plates were blotted to remove acetone. The plates were then dried in open air for 20 minutes. After drying, the plates were then covered with foil seal and stored at −80° C. overnight.
(§4) The next day, samples were re-suspended in 90 μL of solution of 9M urea, 50 mM ammonium bicarbonate and 10 mM DTT by incubating at 65C for 20 min with shaking at 1500 rpm. Next, samples were cooled to 37° C. and then 10 μL of 500 mM iodoacetamide solution (92.48 mg/ml) was added. The samples were then incubated at 37° C. for 30 min with shaking at 600 rpm.
(§5) ZEBA desalting plates were equilibrated 4 times using 250 μL of 2M urea, 50 mM ammonium bicarbonate solution followed by centrifugation at 1500 rpm for 2 minutes. After equilibration was complete, samples were applied to ZEBA desalting plate and spin at 1500 rpm for 2 min on top of 1 mL 96-well deep-well collection plate to buffer exchange samples. 4 μL of solution containing 25 mM CaCl2 and 0.25 mg/mL trypsin was added to the plate and the plate was then incubated at 37° C. for 2 hrs with shaking at 600 rpm. 300 μL of solution containing 5% high-capacity streptavidin agarose slurry in 25 mM Tris-HCl pH 7.5, 150 mM NaCl, and 0.1% NP-40 then added. The plate was incubated at 25° C. for 2 hrs with shaking at 600 rpm. Samples were transferred to 25 μm filter plate and spin at 1000 rpm for 2 min. Samples were then washed 3 times with 0.75 mL of wash buffer (25 mM Tris-HCl pH 7.5, 150 mM NaCl, and 0.1% NP-40) followed by washing 3 times with 0.75 mL PBS, and then 4 times with 0.75 mL water. After the washing step, samples were eluted into polypropylene 96-well plate by addition of 250 µL of 50% MeCN/water, 0.1% formic acid and allowed to gravity drip for 10 min, followed by centrifugation at 1000 rpm for 2 min. Speedvac was used to dry the plates at about 45° C. for […]. Then the plates were covered with foil seal and stored at −20° C.
(§6) Samples were resuspended by addition of 20 μl of 12.5% ACN, 0.1% formic acid solution, covered with foil seal, and incubated at 42° C. for 10 minutes with shaking at 600 rpm. Then add 30 μL of 0.1% formic acid solution was added and the plate was covered and incubated at 42° C. for 10 minutes with shaking at 600 rpm. Seal plate was then sealed with a 96-well silicon mat for analysis.

In test [2] the target is T2, cysteine residue illustrated in Table 1A or Table 2A (Homo sapiens, UniProt Q7Z4G1).
T2 construct: Cells were resuspended in cold PBS on ice and sonicated with a probe sonicator to achieve lysis; endogenous in cells
The settings on record: UniProt Q7Z4G1; 100 uM. The procedure:
as §1, §2, §3, §4, §5, §6

Test [3] has as its target T3, cysteine residue illustrated in Table 1A or Table 2A (Homo sapiens, UniProt P40337).
T3 construct: Cells were resuspended in cold PBS on ice and sonicated with a probe sonicator to achieve lysis; endogenous in cells
The settings on record: UniProt P40337. The procedure:
as §1, §2, §3, §4, §5, §6

Test [4] concerns the target T4, cysteine residue illustrated in Table 1A or Table 2A (Homo sapiens, UniProt P0C7V8).
T4 construct: Cells were resuspended in cold PBS on ice and sonicated with a probe sonicator to achieve lysis; endogenous in cells
The settings on record: UniProt P0C7V8; 500 uM. The procedure:
as §1, §2, §3, §4, §5, §6

T3 sequence (P40337 whole entry): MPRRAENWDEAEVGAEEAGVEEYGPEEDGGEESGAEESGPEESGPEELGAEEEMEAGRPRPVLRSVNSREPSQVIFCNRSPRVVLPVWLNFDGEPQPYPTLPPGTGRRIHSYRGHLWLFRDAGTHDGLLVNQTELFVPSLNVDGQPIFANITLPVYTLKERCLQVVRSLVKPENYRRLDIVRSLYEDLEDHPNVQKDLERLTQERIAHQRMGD
T2 sequence (Q7Z4G1 whole entry): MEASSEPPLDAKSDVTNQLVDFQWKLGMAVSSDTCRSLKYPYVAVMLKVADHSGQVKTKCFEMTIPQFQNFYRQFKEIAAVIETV
T4 sequence (P0C7V8 whole entry): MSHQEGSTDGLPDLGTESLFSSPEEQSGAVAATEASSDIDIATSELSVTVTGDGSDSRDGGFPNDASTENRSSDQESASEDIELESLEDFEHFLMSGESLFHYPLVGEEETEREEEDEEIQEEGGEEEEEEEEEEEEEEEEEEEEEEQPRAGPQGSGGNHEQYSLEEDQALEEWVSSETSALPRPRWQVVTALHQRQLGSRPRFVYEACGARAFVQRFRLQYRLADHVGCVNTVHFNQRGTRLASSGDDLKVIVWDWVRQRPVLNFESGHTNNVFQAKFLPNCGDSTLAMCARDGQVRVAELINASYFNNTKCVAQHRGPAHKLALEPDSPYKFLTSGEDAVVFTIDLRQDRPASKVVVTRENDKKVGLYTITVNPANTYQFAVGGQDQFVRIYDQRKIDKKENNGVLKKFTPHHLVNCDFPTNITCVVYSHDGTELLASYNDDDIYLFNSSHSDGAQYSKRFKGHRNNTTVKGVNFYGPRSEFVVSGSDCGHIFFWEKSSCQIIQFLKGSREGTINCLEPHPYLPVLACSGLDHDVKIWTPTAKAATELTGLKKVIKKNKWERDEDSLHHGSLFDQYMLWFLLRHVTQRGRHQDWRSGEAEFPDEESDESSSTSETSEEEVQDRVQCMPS

Regarding `O=C(CCl)Nc1cc(C(F)(F)F)cc(C(F)(F)F)c1` [KBO3], the “KB03_100 uM_percent_inhibition” value in test [1] is recorded as 13%; in test [2] it was 33%; in test [3] (KB03 100 uM), 19%. Further, in test [4], the “KB03_500 uM_percent_inhibition” value worked out at 41%.

Consider `COc1ccc2c(c1)CCCN2C(=O)CCl` [KB02], for which the “KB02_100 uM_percent_inhibition” value in test [1] amounted to 6%; in test [2], 22%; in test [3] (KB02 100 uM), 12%. For the same compound, the “KB02_500 uM_percent_inhibition” value in test [4] was determined as 55%.

Turning to `C=CC(=O)N(c1ccccc1)c1ccc(Br)cc1` [KB05], the “KB05_100 uM_percent_inhibition” value in test [1] was 94%; in test [2] it was 33%; in test [3] (KB05 100 uM), 15%. Besides, the “KB05_500 uM_percent_inhibition” value in test [3] (KB05 500 uM) is 32%; in test [4] it was 63%.
